{"source": "patent US11039997B2", "about": "“Cosmetic, dermatic, protective compositions comprising phospholipids, lecithins with peptides and at least one acetylating compound” (priority 2005, dated 2021)", "key": {"[1]": {"target": "T1, paf receptors of formaldehyde-treated platelets (Homo sapiens, UniProt P25105)", "T1 construct": "endogenous in cells; host or cells: washed platelets fixed with 1% formaldehyde for 30 min", "T1 sequence (P25105 whole entry)": "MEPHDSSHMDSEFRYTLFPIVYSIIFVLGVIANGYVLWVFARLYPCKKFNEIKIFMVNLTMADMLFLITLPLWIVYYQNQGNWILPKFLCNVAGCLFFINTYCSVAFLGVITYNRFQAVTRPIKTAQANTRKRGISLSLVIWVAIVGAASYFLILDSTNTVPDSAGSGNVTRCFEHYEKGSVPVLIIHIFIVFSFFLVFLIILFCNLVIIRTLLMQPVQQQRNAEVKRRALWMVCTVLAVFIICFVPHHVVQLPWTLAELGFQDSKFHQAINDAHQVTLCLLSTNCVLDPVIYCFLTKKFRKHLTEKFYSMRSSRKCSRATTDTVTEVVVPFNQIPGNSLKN", "experiment": "Binding of [3H]alkyl-paf to formaldehyde-fixed platelets (FIGS. 6 and 7)", "conditions": "30 min; for inhibition of bound [3H]alkyl-paf to stiffened platelets: FIG. 7, [3H]alkyl-paf 0.65 nM, 20° C., n=4", "description": "An extract of whole blood, namely “biological paf” replaces [^3H]alkyl-paf out of the binding and bind to similar alkyl receptors. This competitive inhibition is paralleled with similar effects of synthetic paf and with Ginkgoloides wherein WEB 2086 is used here as the known guiding substance for chlorobenzo(dia)zepines.\n“Biological paf” is used here for the first time as non-separated ethanol extract of whole blood (without HPLC). This dry extract is diluted before it is quantified using aggregation of rabbit platelets in the presence of aspirin and CP/CPK. The novel methods allow for the first time testings without albumin so that alkyl ligands with lower cell affinity compared to albumin can bind in a detectable manner. For example, alkyl lipids without the choline group (alkyl-LPA) bind otherwise in deeper regions of the membranes of untreated cells and/or are rapidly incorporated into free albumin. In addition, the method is independent from calcium so that also calcium-independent alkyl ligands can be inhibited here (e.g. lyso paf). The clinical success against alkyl ligands is thus supported and can be carried out by skilled persons.\nThe FIGS. 5 to 7 thus show the novel screening procedure solves a novel technical problem, namely the variety of damaging alkyl lipids. The quantification is easier using fixed cells as the difficult acetylation step of alkyl lipids is removed which is required for calcium dependent quantification methods. Using fixed cells, cell lines also labelled antibodies and/or soluble transport-binding proteins can be tested and produced.\n(§1) FIGS. 5 to 7 investigated for the first time binding of [^3H]alkyl-paf or [^3H]acetyl group after treatment with formaldehyde (1%, 30 min) comparing different temperatures, indicated concentrations and said Ginkgoloides. The allosteric binding of [^3H]alkyl groups was reached only at 20° C. while [^3H]acetyl groups bound at 4° C. excluding allosteric effects.\nPlatelets were treated with formaldehyde (1%, 30 min, n=6). Values are expressed as bound [^3H]alkyl-paf to […]. […]"}, "[2]": {"tested_on": "metabolic syndrome mediated by LA-paf", "conditions": "Wu et al. J. Int. Med. 246, 1999; cited from earlier work"}, "[3]": {"tested_on": "washed aspirinated platelets", "experiment": "Binding of [3H]alkyl-paf / [3H]alkyl-lyso paf to washed aspirinated platelets and formation of AAGPC, LA-paf (FIG. 2)", "assay_type": "cell-based, human", "conditions": "FIG. 2C; normolipidemic platelets, [3H]-alkyl-lyso paf 0.065 nM, 40 nM antagonist, 0.25% BSA", "description": "These women with “OMIH”-syndrome show overweight (aged 34±11 years, BMI: […]), raised LDL (167±15 mg/dl, HDL: 76±41 mg/dl) and triglyceride levels (206±27 mg/dl) borderline hypertension (125±13/88±10 mmHg) and disturbed glucose tolerance (1 h: 170±61 mg/dl).\nGinkgoloides with free albumin (BSA) inhibited here the binding of [^3H]alkyl-paf to “OMIH”-platelets after three washes (FIG. 2 A+B). […] Normolipidemic platelets do nearly not incorporate [^3H]alkyl-paf or [^3H]alkyl-lyso paf and form nearly no AAGPC and LA-paf in the presence of Ginkgoloides and free albumin (FIG. 2C).\nAAGPC and LA-paf are chemically alkyl-acyl-sn-glycero-phosphocholines. […] Values are fmol per 10^8 platelets and are means±1 S.D. from three different experiments as described (R. Korth et al. Chem. Phys. Lipids 70(1994), 109-119)."}, "human neutrophils": {"tested_on": "human neutrophils", "experiment": "Formation of labeled AAGPC+LA-paf by neutrophils (FIG. 4)", "assay_type": "cell-based", "conditions": "0.25% BSA", "description": "The non-differentiated washed blood leukocytes incorporate here [^3H]alkyl-paf with intermediate of [^3H]alkyl-lyso paf and form alkyl lipids (AAGPC+LA paf) in a saturated manner (A: 0.65 nM vs. B: 6.5 nM) wherein unlabelled paf fails to replace (B, 5 nM). Thus, at least one non-specific transport protein is indicated (e.g. acetylhydrolase) on undifferentiated cells. The less differentiated cells are invented here as a model for monocytes, endothelial cells, glia cells, cartilage cells, adipocytes, endogenous stem cells etc. The acetylhydrolases on plasma membranes of leukocytes remove alkyl lipids and these cells are then pre-activated, differentiated and ready to emigrate. Non-specific antagonists e.g. free albumin protect against alkyl ligands and compete with cells for binding of alkyl lipids. The fatty decline of cells in the entire organisms is clinically healed here. […]\nWashed intact cells were incubated with normal or excess concentrations of [^3H]-alkyl-paf forming then the stable amount of AAGPC & LA (A: 0.65 nM or B: 6.5 nM). […] Values are expressed as percent of added label (2.5×10^6 cells/500μl, 0.25% BSA, n=3, see R.-M. Korth, Int. Arch. All. Imm. 113, p 460-464, 1997). […]"}, "[4]": {"target": "T1, paf receptors of formaldehyde-treated platelets", "experiment": "Binding of [3H]acetyl paf to formaldehyde-fixed platelets at 4° C. (FIG. 5)", "conditions": "unlabeled paf 50 nM, [3H]acetyl paf 0.65 nM or 0.065 nM", "description": "(FIG. 5D versus 5C). The allosteric alkyl effects are inhibited by stiffening of the membrane so that the scavenger-like allosteric configuration change of cells is shown as mentioned before. In contrast, the [^3H]acetyl group of paf binds at 4° C. to fixed cells treated prior to the last wash with formaldehyde to be subsequently cooled and stiffened (1%, 30 min, A+B). The acetyl group binds and covers paf receptors without allosteric upregulation so that acetylating compounds are using this effect in accordance with the invention.\nas §1\nUnlabeled paf (50 nM) competed showing specific binding of [^3H]acetyl paf. […] Next, [^3H]alkyl-paf failed binding to stiffened platelets at 4° C. showing moderate specific binding only at 20° C. (C: 0.65 nM, 30 min, 20° C.). […] Values are expressed as bound labelled ligands to 10^8 platelets. Platelets were separated with vacuum filtration and means±1 S.D. are from three experiments."}, "intact human platelets": {"tested_on": "intact human platelets", "experiment": "Lipoprotein-triggered catabolism of [3H]alkyl-paf and formation of AAGPC and LA-paf by intact platelets (FIG. 3)", "assay_type": "cell-based", "conditions": "FIG. 3 C+D; [3H]alkyl-paf 0.65 nM; apo B 0.1 mg/ml, VLDL 80 μg/ml", "description": "Only LDL but not ApoB and not VLDL overcome the protection by albumin (FIG. 3E versus 3D). […] In the presence (A+C) or absence (B) of washed platelets nearly no AAGPC with derivatives and products is formed. The acetylhydrolases form lyso paf and LDL, of apoB and VLDL also form lyso paf whereby the uptake of lyso paf is triggered by LDL.\n[^3H]alkyl-lyso paf was stable in the albumin buffer as well (B: 0.25% BSA, 30 min, 20° C.). […] Overall, purified LDL-particles rather than isolated apoB trigger uptake and formation of AAGPC and/or LA-paf. Values are expressed as percent of added label bound to platelets. Cells were separated using vacuum filtration as described (R. Korth et al. Chem. Phys. Lipids 70, 109-119, 1994). Values were expressed as percent of added label. Values are means±1.S.D. of three different experiments."}}}
{"molecule": "CC1C(=O)OC2C(O)C34C5CC(C(C)(C)C)C36C(OC(=O)C6O)OC4(C(=O)O5)C12O", "note": "(stereo not drawn) [BN 52021]", "values": [{"measurement": "inhibition of bound [3H]alkyl-paf", "setting": "[1]; FIG. 6, platelets treated with formaldehyde 1%, 30 min 20° C.", "result": "concentration-dependent inhibition"}]}
{"molecule": "Cc1nnc2n1-c1sc(CCC(=O)N3CCOCC3)cc1C(c1ccccc1Cl)=NC2", "note": "[WEB 2086]", "values": [{"measurement": "treatment of metabolic syndrome with thickening of the intima and borderline hypertension", "setting": "[2]", "result": "successfully treated"}, {"measurement": "formation of cellular metabolites (AAGPC, LA-paf) from [3H]-alkyl-lyso paf", "setting": "[3]", "result": "without relevant formation of indicated cellular metabolites"}, {"measurement": "inhibition of bound [3H]alkyl-paf to stiffened platelets", "setting": "[1]", "result": "inhibited"}]}
{"molecule": "CCCCCCCCCCCCCCCCOC[C@H](COP(=O)([O-])OCC[N+](C)(C)C)OC(C)=O", "note": "[synthetic paf]", "values": [{"measurement": "competition with formation of AAGPC/LA-paf", "setting": "human neutrophils; unlabeled paf 5 nM, [3H]-alkyl-paf 0.65 nM or 6.5 nM, n=3", "result": "did not compete"}, {"measurement": "inhibition of bound [3H]alkyl-paf to stiffened platelets", "setting": "[1]", "result": "inhibited at low concentrations"}, {"measurement": "competition with [3H]acetyl paf binding", "setting": "[4]", "result": "competed"}]}
{"molecule": "ApoB: isolated apo B (Sigma Chemical)", "values": [{"measurement": "formation of lyso paf and cellular uptake", "setting": "intact human platelets", "result": "form lyso paf without cellular uptake"}]}
{"molecule": "Purified albumin: free, delipidated albumin (BSA), representative non-specific antagonist", "values": [{"measurement": "protection of intact cells as non-specific antagonist", "setting": "human neutrophils", "result": "protected"}]}
